# Results as given in PMC5215691 (2017).
# How the values were obtained:
# [1] = system: FAM-labeled KBA 3-1 (DNA, aptamer) CGGAAGCGCGCCACCCCATCGGCGGGCGCGAAGCTTGCG; assay: RGO fluorescence quenching/recovery; conditions: 1X PBS pH 8.5, room temperature, 100 nM aptamer, 0.1 mg/mL RGO
# [2] = system: KBA 2 (DNA, aptamer) ATGCGGATCCCGCGCGACCAACGGAAGCGCGCCACCCCATCGGCGGCGCGAAGCTTGCGC; assay: ELONA (biotin-aptamer, streptavidin-HRP); conditions: for binding: immobilised compound, 1 μM aptamer
# [3] = system: KBA 3-1 (DNA, aptamer) CGGAAGCGCGCCACCCCATCGGCGGGCGCGAAGCTTGCG; assay: ELONA (biotin-aptamer, streptavidin-HRP); conditions: for binding: immobilised compound, 1 μM aptamer
# [4] = system: KBA 1 (DNA, aptamer) ATGCGGATCCCGCGCCGACGTCAGAGAGGCGCGCTGGTTTGCACCGCGCGAAGCTTGCGC; assay: ELONA (biotin-aptamer, streptavidin-HRP); conditions: not given; 1X PBS/PBST (concentrations not given); immobilised compound (amide bond on NOS plate); apparent
# [5] = system: KBA 1-1 (DNA, aptamer) ATGCGGATCCCGCGCCGACGTCAGAGAGGCGCGCTGGTTTGCAC; assay: ELONA (biotin-aptamer, streptavidin-HRP); conditions: not given; 1X PBS/PBST (concentrations not given); immobilised compound (amide bond on NOS plate); apparent
# [6] = system: KBA 1-2 (DNA, aptamer) CGCGCCGACGTCAGAGAGGCGCG; assay: ELONA (biotin-aptamer, streptavidin-HRP); conditions: not given; 1X PBS/PBST (concentrations not given); immobilised compound (amide bond on NOS plate); apparent
# [7] = system: KBA 2-1 (DNA, aptamer) CGGAAGCGCGCCACCCCATCGGCGGCGCGAAGCTTGCG; assay: ELONA (biotin-aptamer, streptavidin-HRP); conditions: not given; 1X PBS/PBST (concentrations not given); immobilised compound (amide bond on NOS plate); apparent
# [8] = system: KBA 2-2 (DNA, aptamer) CGCCACCCCATCGGCGGCG; assay: ELONA (biotin-aptamer, streptavidin-HRP); conditions: not given; 1X PBS/PBST (concentrations not given); immobilised compound (amide bond on NOS plate); apparent
# [9] = system: KBA 3 (DNA, aptamer) ATGCGGATCCCGCGCACCAACGGAAGCGCGCCACCCCATCGGCGGGCGCGAAGCTTGCGC; assay: ELONA (biotin-aptamer, streptavidin-HRP); conditions: not given; 1X PBS/PBST (concentrations not given); immobilised compound (amide bond on NOS plate); apparent
# [10] = system: KBA 3-2 (DNA, aptamer) CGCCACCCCATCGGCGGGCG; assay: ELONA (biotin-aptamer, streptavidin-HRP); conditions: not given; 1X PBS/PBST (concentrations not given); immobilised compound (amide bond on NOS plate); apparent
# [11] = not given, 1X PBS/PBST (concentrations not given), immobilised compound (amide bond on NOS plate), apparent
binding ([1]; 1 μM antibiotic),binding [2],binding [3],Compound,also measured
weak,weak,weak,CN(C)[C@@H]1C(=O)C(C(N)=O)=C(O)[C@@]2(O)C(=O)C3=C(O)c4c(O)cccc4[C@@](C)(O)[C@H]3C[C@@H]12,
,weak,weak,CC1(C)S[C@@H]2[C@H](NC(=O)[C@H](N)c3ccccc3)C(=O)N2[C@H]1C(=O)O,binding ([1]; 1 μM ampicillin): no

# The remaining lines, values behind:
Compound,binding ([1]; 1 μM antibiotic),binding [2],binding [3],also measured
CN[C@@H]1[C@H](O[C@H]2[C@H](O[C@H]3[C@H](O)[C@@H](O)[C@H](N=C(N)N)[C@@H](O)[C@@H]3N=C(N)N)O[C@@H](C)[C@]2(O)CO)O[C@@H](CO)[C@H](O)[C@H]1O,weak,weak,weak,
CN[C@@H]1[C@H](O[C@H]2[C@H](O[C@H]3[C@H](O)[C@@H](O)[C@H](N=C(N)N)[C@@H](O)[C@@H]3N=C(N)N)O[C@@H](C)[C@]2(O)C=O)O[C@@H](CO)[C@H](O)[C@H]1O,weak,weak,weak,
NC[C@H]1O[C@H](O[C@H]2[C@H](O)[C@@H](O[C@H]3O[C@H](CO)[C@@H](O)[C@H](N)[C@H]3O)[C@H](N)C[C@@H]2N)[C@H](O)[C@@H](O)[C@@H]1O,,,,"binding ([1]; 1 pM to 1 μM kanamycin): yes; Kd^app [4]: 268 ± 20.8 nM; Kd^app [5]: 268 ± 26.7 nM; Kd^app [6]: 669 ± 10.7 nM; Kd^app [2, 11]: 34.7 ± 35.6 nM; Kd^app [7]: 182 ± 57.2 nM; Kd^app [8]: 564 ± 92.5 nM; Kd^app [9]: 341 ± 12.8 nM; Kd^app [3, 11]: 92.3 ± 29.1 nM; Kd^app [10]: 239 ± 52.5 nM"
